Entries after “also recorded” stand apart in the source; their conditions may differ.
Legend:
[1] = test system: human malignant glioma cell line LN-229; test: Cell viability and Fas-ligand mediated apoptosis in glioma cells; type: cell-based; settings: LN-229 cells; for Effect on destruction of cells by Fas-ligand: combined with Fas-ligand
Method: The present invention relates to the ability of methylol transfer agents, such as taurolidine, to induce cell toxicity, and to enhance Fas-ligand mediated apoptosis. Both taurolidine and its congener taurultam enhance the apoptotic effect of Fas-ligand in cancer cells at drug concentrations which per se show practically no effect on cell viability. For example, in the human malignant glioma cell line LN-229 cell viability was reduced directly following incubation with taurolidine or taurultam alone. […] Thus, the use of methylol transfer agents to induce apoptotic cell death provides a means for treating mesothelioma as in the present invention.

[2] = cited from earlier work
[3] = test system: malignant mesothelioma; test: Therapy of mesothelioma with taurolidine: single-patient case, two treatment cycles, intravenous plus intrapleural; type: in vivo, human
From the text: The following is a case involving treatment of an individual for two treatment cycles. Patient: Diagnosis: Malignant mesothelioma two yrs. ago (stage III according to IMIG stadiation) Prior treatments: Treated with CT with Cis-Platinum/Gemcitabine, Local recurrency with pleural effusion. Treated with taurolidine 2%, Two cycles of three weeks with taurolidine both intravenous and intrapleural administration I.V: 4 bottles daily for 5 days for three weeks (2 cycles) I.P: 1 bottle daily for 5 days for three weeks (2 cycles)

Structure (SMILES) | Effect on destruction of cells by Fas-ligand [1] | Cell viability following incubation with compound alone [1] | Water solubility [2] | Main side effects, I.P. (intrapleural) administration ([3]; I.P. 1 bottle taurolidine 2% daily for 5 days for three weeks (2 cycles)) | Main side effects, I.V. administration ([3]; I.V. 4 bottles taurolidine 2% daily for 5 days for three weeks (2 cycles)) | Side effects obliging discontinuance of the treatment ([3]; I.V. and I.P. administration, 2 cycles) | Clinical response ([3]; same patient and regimen, preliminary response evaluation) | Patient's condition after treatment ([3]; two treatment cycles, I.V. and I.P.)
O=S1(=O)CCN(CN2CCS(=O)(=O)NC2)CN1 [taurolidine, Bis-(1,1-dioxoperhydro-1,2,4-thiadiazinyl-4)methane] | enhanced the destruction of LN-229 cells by Fas-ligand | reduced | up to 2% | Local burning at the site of instillation; also recorded: Thoracic burning of significant grade | Mild local burning at the site of instillation; also recorded: Transient symptomatic hypthension | None | Highly significant reduction of the dyspnea | marked improvement
O=S1(=O)CCNCN1 [taurultam] | enhanced the destruction of LN-229 cells by Fas-ligand | reduced |  |  |  |  |  | 

From US8236794B2, “Treatment of mesothelioma” (Ed. Geistlich Soehne AG fuer Chemische Industrie, priority 2003, dated 2012)
